Measured values as given in patent publication US20210283211A1, “COMPOSITIONS AND METHODS OF ALLEVIATING RESISTANCE TO CHEMOTHERAPY” (CITY OF HOPE, priority 2019, published 2021).

Assays:
Format in all cases: cell-based, human
[1] = test system: ITGB4, PXN, FAK, p27, phospho-Rb, γH2AX, cleaved PARP in H2009 cells; assay: Immunoblot; conditions: cisplatin 10 μM, 3 days
Method: (§1) West blotting: Cell lysates were prepared with 1×RIPA buffer (MilliporeSigma) and denatured in 1× reducing sample buffer at 95° C. for 5 minutes. Protein samples (15 μg) were run on 4-15% TGX gels (Bio-Rad, Hercules, Calif., USA) and transferred onto nitrocellulose membranes (Bio-Rad). Blots were blocked with 5% non-fat milk in TBS-T for 1 hour at room temperature and probed with primary antibody diluted in 2.5% BSA in TBS-T overnight at 4° C. After three washes with TBS-T, blots were incubated with HRP-conjugated secondary antibodies for 2 hours at room temperature. After three more washes, bands of interest were visualized via chemiluminescence using Western Bright ECL HRP substrate (Advansta, Menlo Park, Calif., USA) and imaged with the ChemiDoc MP imager (Bio-Rad).
(§2) Then a sublethal dose was used to determine the effect of these compounds on ITGB4 and PXN expression and caspase activity (FIG. 9I). […] These eleven compounds were further screened in the cisplatin-resistant cell line H2009. […] Further, carfilzomib was tested in another cisplatin-resistant cell line H1993.

[2] = test system: ITGB4, PXN, FAK, MET, γH2AX, cleaved PARP in H1993 cells; assay: Immunoblot; conditions: cisplatin 10 μM, 3 days
Method: as §1, §2

H2009 cells = assay: IncuCyte cell proliferation and caspase-3/7 apoptosis assay; conditions: 10 μM cisplatin alone
Method: (§3) Cell proliferation and apoptosis assay. Cell proliferation assays were performed using cell lines stably transfected with NucLight Red Lentivirus (Essen Bioscience) to accurately visualize and count the nucleus of a single cell. Cells were seeded on a 96-well plate and allowed to adhere for 24 hours. Test compounds were added at indicated concentrations. Caspase-3/7 Green Apoptosis Reagent (Essen Bioscience) was also added as a green fluorescent indicator of caspase-3/7-mediated apoptotic activity. To monitor cell proliferation and apoptosis over time, the plate was placed in the IncuCyte S3 Live-Cell Analysis System (Essen BioScience) and images were acquired every 2 hours. Data analysis was generated by the IncuCyte software using a red fluorescence mask to accurately count each cell nucleus and a green fluorescence mask to measure apoptosis over time.
(§4) To determine whether the inhibition in cell proliferation associated with ITGB4 knockdown was due to enhanced apoptosis or reduced cell division (cytostatic), the Essen Bioscience Caspase-3/7 Green apoptosis assay in live cells was conducted. The NucView™[…], a DNA intercalating dye was used to enable quantification of apoptosis over time. The dye is impermeable and non-toxic to cells but once the cell membrane is permeabilized by caspase-3/7, the dye enters the cell and gets activated due to change in pH leading to the generation of green fluorescence that is then detected in real time and quantified using the IncuCyte System (FIG. 4B).
(§5) To address this, H1993 and H2009 cells were treated with cisplatin for 3 days and the changes were analyzed by immunoblotting. […] Next, H1993 and H2009 cells were transiently transfected with ITGB4 siRNA and 24 hours post-transfection they were treated with 10 μM cisplatin and cell proliferation and caspase activity were determined. […] However, in response to cisplatin in ITGB4 knockdown cells, the fold change dipped to <1, alluding to a cytotoxic effect (FIG. 4C). […] However, cell death was not due to caspase activation but appeared to be due to cell bursting which is seen in anoikis (FIGS. 3K and 3L).

[3] = test system: ITGB4, PXN, USP1, VDAC1, CD133 in patient-derived organoids; assay: Immunoblot of treated patient-derived organoids; conditions: 48 hours, printed 2.5 mM and 5 mM
[4] = test system: patient-derived organoids (lung cancer); assay: Patient tumor tissue-derived organoid assay (area, caspase activity)
Method: Next, drug efficacy in patient tumor tissue-derived organoids was determined. Approximately 5000 cells/sample from 2 surgical samples were seeded in an ultra-low attachment plate and incubated at 37° C. […] In one of the patient-derived organoids, cisplatin treatment alone decreased spheroid area and increased apoptosis as measured by green intensity (FIG. 11D). […] Indeed, by 72 hours carfilzomib at a concentration of 2.5 μM induced 5-fold increase in caspase activity compared to cisplatin alone but there was not much change in the spheroid area (FIGS. 11E-11F). Thus, no additive effect was apparent in this patient sample. […] The efficacy of ITGB4 antibody in disrupting organoid growth and inducing apoptosis was also tested.

H1993 cells = assay: IncuCyte cell proliferation and caspase-3/7 apoptosis assay
Method: as §3, §4
as §5, with “3L). […]” for “3L).”

[5] = test system: ITGB4 expression in H2009 cells; assay: FACS analysis with ITGB4 antibody after cisplatin; conditions: cisplatin for 4 days, FACS on day 5
Method: Fluorescence-activated cell sorting (FACS) and analysis: Cells were trypsinized and resuspended (5 million) in PBS with 2% FBS. Cells were stained with ITGB4 antibody conjugated to Alexa Fluor® 488 (5 μl/1 million cells) (R&D Systems, Minneapolis, Minn., USA) and Propidium Iodide Ready Flow™ Reagent (1 drop/1 million cells) (Invitrogen) for 30 minutes at 4° C. The Analytical Cytometry Core Facility at City of Hope carried out and assisted all FACS sorting and analysis experiments. Gates were set to sort cell populations having low 10% and high 10% expression of ITGB4 using the FACSAria™ Fusion (BD Biosciences, San Jose, Calif., USA). Sorted cells were immediately cultured in 12-well plates and treated with cisplatin (1 μM) for 48 hours. Then, equal number of untreated and treated cells were collected and stained with same reagents as above. FACS analysis was performed to determine shifts in cell population using the Attune NxT Flow Cytometer (Invitrogen).
To test the predictions made by the model, H2009 cells were treated with cisplatin for 4 days. On day 5, they were subjected to FACS analysis using an ITGB4 antibody. […] In presence of stress, the cells either increased the expression of ITGB4 or the cells having high ITGB4 get selected (FIG. 13B). […] The cells were then counted, and an equal number of cells were stained with ITGB4 antibody and PI and analyzed by FACS sorting.

## N.N.[Cl][Pt][Cl] [Cisplatin, Cis-diamminedichloroplatinum(II)]
[1]
  protein expression by immunoblot: reduction in the expression of phosphorylated as well as total FAK and PXN
[2]
  protein expression by immunoblot: reduction in the expression of phosphorylated as well as total FAK and PXN
H2009 cells
  apoptosis: induced apoptosis in H2009 cell by 72 hours
[3]
  protein expression by immunoblot: minimal effect
[4]; patient LCSC2
  spheroid area: decreased the spheroid area
[4]; patient LCSC4, cisplatin 5 μM alone, carfilzomib 2.5 μM alone
  organoid size: decreased the size of the organoid
[4]; second patient (LCSC2) organoids, drug alone
  caspase activity: did not induce any caspase activity
H1993 cells; 10 μM cisplatin alone
  caspase activity: did not induce caspase activity
H1993 cells; ITGB4 knockdown or 10 μM cisplatin alone, cytostatic
  fold change in cell count: ~1 fold
[5]
  decrease in ITGB4 low-expressing cells compared to untreated: 15%
